Measurements taken from ChEMBL document CHEMBL5532681, “Cannabidiol Inhibits Epithelial Ovarian Cancer: Role of Gut Microbiome” (J Nat Prod, 2024).
The source made the active and inactive calls. No cut-off for these calls is given here.

Experiments:
A2780 [1] = assay: Antitumor activity against human A2780 cells xenografted in BALB/c female nude mouse assessed as decrease in tumor weight at 10 to 20 mg/kg, ip administered on day 24 and measured every other day for 45 days; assay type: functional, organism-based; settings: dose 10-20 mg/kg, time 45.0 day
A2780 [2] = assay: Antiproliferative activity against human A2780 cells assessed as decrease in cell viability incubated for 24 to 72 hrs by CCK-8 assay; assay type: functional, cell-based; settings: time 24-72 hrs
A2780 [3] = assay: Antiproliferative activity against human A2780 cells assessed as decrease in cell viability at 3 to 12 uM by CCK-8 assay; assay type: functional, cell-based; settings: dose 3-12 µM, TDE = time-dependent effect
ES-2 [4] = assay: Antiproliferative activity against human ES2 cells assessed as decrease in cell viability incubated for 24 to 72 hrs by CCK-8 assay; assay type: functional, cell-based; settings: time 24-72 hrs
ES-2 [5] = assay: Antiproliferative activity against human ES2 cells assessed as decrease in cell viability at 3 to 12 uM by CCK-8 assay; assay type: functional, cell-based; settings: dose 3-12 µM, TDE = time-dependent effect
A2780 [6] = assay: Antiproliferative activity against human A2780 cells assessed as decrease in cell viability at 3 to 12 uM incubated for 24 hrs by crystal violet staining based assay; assay type: functional; settings: dose 3-12 µM
ES-2 [7] = assay: Antiproliferative activity against human ES2 cells assessed as decrease in cell viability at 3 to 12 uM incubated for 24 hrs by crystal violet staining based assay; assay type: functional; settings: dose 3-12 µM
A2780 [8] = assay: Antiproliferative activity against human A2780 cells assessed as decrease in cell viability at 12 uM incubated for 24 hrs by crystal violet staining based assay relative to control; assay type: functional
ES-2 [9] = assay: Antiproliferative activity against human ES2 cells assessed as decrease in cell viability at 12 uM incubated for 24 hrs by crystal violet staining based assay relative to control; assay type: functional
A2780 [10] = assay: Inhibition of cell migration in human A2780 cells assessed as decrease in migration distance at 3 uM incubated for 24 hrs by wound healing assay relative to control; assay type: functional; design: scale not given: the % may be the effect or the level left
A2780 [11] = assay: Inhibition of cell migration in human A2780 cells assessed as decrease in migration distance at 6 uM incubated for 24 hrs by wound healing assay relative to control; assay type: functional; design: scale not given: the % may be the effect or the level left
A2780 [12] = assay: Inhibition of cell migration in human A2780 cells assessed as decrease in migration distance at 12 uM incubated for 24 hrs by wound healing assay relative to control; assay type: functional; design: scale not given: the % may be the effect or the level left
ES-2 [13] = assay: Inhibition of cell migration in human ES2 cells assessed as decrease in migration distance at 3 uM incubated for 24 hrs by wound healing assay relative to control; assay type: functional; design: scale not given: the % may be the effect or the level left
ES-2 [14] = assay: Inhibition of cell migration in human ES2 cells assessed as decrease in migration distance at 6 uM incubated for 24 hrs by wound healing assay relative to control; assay type: functional; design: scale not given: the % may be the effect or the level left
ES-2 [15] = assay: Inhibition of cell migration in human ES2 cells assessed as decrease in migration distance at 12 uM incubated for 24 hrs by wound healing assay relative to control; assay type: functional; design: scale not given: the % may be the effect or the level left
A2780 [16] = assay: Inhibition of cell invasion in human A2780 cells assessed as decrease in invasion rate at 3 uM incubated for 48 hrs by transwell assay; assay type: functional; design: scale not given: the % may be the effect or the level left
A2780 [17] = assay: Inhibition of cell invasion in human A2780 cells assessed as decrease in invasion rate at 6 uM incubated for 48 hrs by transwell assay; assay type: functional; design: scale not given: the % may be the effect or the level left
A2780 [18] = assay: Inhibition of cell invasion in human A2780 cells assessed as decrease in invasion rate at 12 uM incubated for 48 hrs by transwell assay; assay type: functional; design: scale not given: the % may be the effect or the level left
ES-2 [19] = assay: Inhibition of cell invasion in human ES2 cells assessed as decrease in invasion rate 3 uM incubated for 48 hrs by transwell assay; assay type: functional; design: scale not given: the % may be the effect or the level left
ES-2 [20] = assay: Inhibition of cell invasion in human ES2 cells assessed as decrease in invasion rate at 6 uM incubated for 48 hrs by transwell assay; assay type: functional; design: scale not given: the % may be the effect or the level left
ES-2 [21] = assay: Inhibition of cell invasion in human ES2 cells assessed as decrease in invasion rate at 12 uM incubated for 48 hrs by transwell assay; assay type: functional; design: scale not given: the % may be the effect or the level left
A2780 [22] = assay: Downregulation of AKT expression in human A2780 cells by Westernblot analysis; assay type: functional, cell-based
A2780 [23] = assay: Downregulation of EGFR expression in human A2780 cells by Westernblot analysis; assay type: functional, cell-based
A2780 [24] = assay: Downregulation of MMP-2 expression in human A2780 cells by Westernblot analysis; assay type: functional, cell-based
A2780 [25] = assay: Downregulation of MMP-9 expression in human A2780 cells by Westernblot analysis; assay type: functional, cell-based
ES-2 [26] = assay: Downregulation of AKT expression in human ES2 cells by Westernblot analysis; assay type: functional, cell-based
ES-2 [27] = assay: Downregulation of EGFR expression in human ES2 cells by Westernblot analysis; assay type: functional, cell-based
ES-2 [28] = assay: Downregulation of MMP-2 expression in human ES2 cells by Westernblot analysis; assay type: functional, cell-based
ES-2 [29] = assay: Downregulation of MMP-9 expression in human ES2 cells by Westernblot analysis; assay type: functional, cell-based
[30] = Downregulation of EGFR expression in human A2780 cells at 12 uM by Westernblot analysis relative to control; assay type: functional
[31] = Downregulation of MMP-2 expression in human A2780 cells at 12 uM by Westernblot analysis relative to control; assay type: functional
[32] = Downregulation of MMP-9 expression in human A2780 cells at 12 uM by Westernblot analysis relative to control; assay type: functional
[33] = Downregulation of EGFR expression in human ES2 cells at 12 uM by Westernblot analysis relative to control; assay type: functional, ES-2
[34] = Downregulation of MMP-2 expression in human ES2 cells at 12 uM by Westernblot analysis relative to control; assay type: functional, ES-2
[35] = Downregulation of MMP-9 expression in human ES2 cells at 12 uM by Westernblot analysis relative to control; assay type: functional, ES-2
A2780 [36] = assay: Antitumor activity against human A2780 cells xenografted in BALB/c female nude mouse assessed as decrease in body weight at 10 to 20 mg/kg, ip administered on day 24 and measured every other day for 45 days; assay type: functional, organism-based; settings: dose 10-20 mg/kg, time 45.0 day
A2780 [37] = assay: Antitumor activity against human A2780 cells xenografted in BALB/c female nude mouse assessed as decrease in tumor growth rate at 10 to 20 mg/kg, ip administered on day 24 and measured every other day for 45 days; assay type: functional, organism-based; settings: dose 10-20 mg/kg, time 45.0 day
A2780 [38] = assay: Antitumor activity against human A2780 cells xenografted in BALB/c female nude mouse assessed as decrease in tumor volume at 10 to 20 mg/kg, ip administered on day 24 and measured every other day for 45 days; assay type: functional, organism-based; settings: dose 10-20 mg/kg, time 45.0 day
[39] = Toxicity in human A2780 cells xenografted in BALB/c female nude mouse assessed as effect on spleen index at 10 to 20 mg/kg, ip administered on day 24 and measured every other day for 45 days; assay type: organism-based; settings: in vivo, 1080 h, dose 10-20 mg/kg, time 45 day
[40] = Toxicity in human A2780 cells xenografted in BALB/c female nude mouse assessed as effect on body weight at 10 to 20 mg/kg, ip administered on day 24 and measured every other day for 45 days; assay type: organism-based; settings: in vivo, 1080 h, dose 10-20 mg/kg, time 45 day
A2780 [41] = assay: Antitumor activity against human A2780 cells xenografted in BALB/c female nude mouse assessed as disordered tumor cells at 10 to 20 mg/kg, ip administrated for 28 days by HE staining based analysis; assay type: functional, organism-based; settings: dose 10-20 mg/kg, time 28.0 day
A2780 [42] = assay: Antitumor activity against human A2780 cells xenografted in BALB/c female nude mouse assessed as irregular tumor shape at 10 to 20 mg/kg, ip administrated for 28 days by HE staining based analysis; assay type: functional, organism-based; settings: dose 10-20 mg/kg, time 28.0 day
A2780 [43] = assay: Antitumor activity against human A2780 cells xenografted in BALB/c female nude mouse assessed as reduction in cells with hyaline cytoplasm at 10 to 20 mg/kg, ip administrated for 28 days by HE staining based analysis; assay type: functional, organism-based; settings: dose 10-20 mg/kg, time 28.0 day
A2780 [44] = assay: Antitumor activity against human A2780 cells xenografted in BALB/c female nude mouse assessed as decrease in AKT positive cells at 10 to 20 mg/kg, ip administrated for 28 days by immunohistochemical analysis; assay type: functional, organism-based; settings: dose 10-20 mg/kg, time 28.0 day
A2780 [45] = assay: Antitumor activity against human A2780 cells xenografted in BALB/c female nude mouse assessed as reduction in EGFR positive cells at 20 mg/kg, ip administrated for 28 days by immunohistochemical analysis; assay type: functional, organism-based; settings: time 28.0 day
A2780 [46] = assay: Anticancer activity against human A2780 cells xenografted in BALB/c female nude mouse assessed as decrease in abundance of firmicutes at 10 to 20 mg/kg, ip administrated for 28 days; assay type: functional, organism-based; settings: dose 10-20 mg/kg, time 28.0 day
A2780 [47] = assay: Anticancer activity against human A2780 cells xenografted in BALB/c female nude mouse assessed as increase in abundance of alistipes at 10 to 20 mg/kg, ip administrated for 28 days; assay type: functional, organism-based; settings: dose 10-20 mg/kg, time 28.0 day
A2780 [48] = assay: Anticancer activity against human A2780 cells xenografted in BALB/c female nude mouse assessed as increase in intestinal microbial diversity at 10 to 20 mg/kg, ip administrated for 28 days; assay type: functional, organism-based; settings: dose 10-20 mg/kg, time 28.0 day

Compound: C=C(C)[C@@H]1CCC(C)=C[C@H]1c1c(O)cc(CCCCC)cc1O [CANNABIDIOL]
- Activity (A2780 [1]): Active
- Activity (A2780 [2]): Dose-Dependent Effect
- Activity (A2780 [3]): Tde
- Activity (ES-2 [4]): Dose-Dependent Effect
- Activity (ES-2 [5]): Tde
- Activity (A2780 [6]): Dose-Dependent Effect
- Activity (ES-2 [7]): Dose-Dependent Effect
- Activity (A2780 [8]): 27%
- Activity (ES-2 [9]): 24%
- Activity (A2780 [10]): 75%
- Activity (A2780 [11]): 62%
- Activity (A2780 [12]): 52%
- Activity (ES-2 [13]): 73%
- Activity (ES-2 [14]): 53%
- Activity (ES-2 [15]): 26%
- Activity (A2780 [16]): 71%
- Activity (A2780 [17]): 56%
- Activity (A2780 [18]): 61%
- Activity (ES-2 [19]): 80%
- Activity (ES-2 [20]): 39%
- Activity (ES-2 [21]): 32%
- Activity (A2780 [22]): Dose-Dependent Effect
- Activity (A2780 [23]): Dose-Dependent Effect
- Activity (A2780 [24]): Dose-Dependent Effect
- Activity (A2780 [25]): Dose-Dependent Effect
- Activity (ES-2 [26]): Dose-Dependent Effect
- Activity (ES-2 [27]): Dose-Dependent Effect
- Activity (ES-2 [28]): Dose-Dependent Effect
- Activity (ES-2 [29]): Dose-Dependent Effect
- Activity [30]: 58%
- Activity [31]: 77%
- Activity [32]: 77%
- Activity [33]: 79%
- Activity [34]: 77%
- Activity [35]: 81%
- Activity (A2780 [36]): Active
- Activity (A2780 [37]): Active
- Activity (A2780 [38]): Active
- Activity [39]: Non-Toxic
- Activity [40]: Non-Toxic
- Activity (A2780 [41]): Active
- Activity (A2780 [42]): Active
- Activity (A2780 [43]): Active
- Activity (A2780 [44]): Active
- Activity (A2780 [45]): Active
- Activity (A2780 [46]): Active
- Activity (A2780 [47]): Active
- Activity (A2780 [48]): Active
